Source: patent US20250302965A1, “Preparations of Basic pH Hydrotropes & Methods for Making Same” (Aurora Pharmaceutical, Inc., priority 2023, published 2025)

experiment: not given; conditions: cited from earlier work

| SMILES | acidity (pKa) |
| --- | --- |
| CNC[C@H](O)[C@@H](O)[C@H](O)[C@H](O)CO [Meglumine] | 8.01 |

experiment: Meloxicam formulations at different meglumine-to-meloxicam molar ratios; neutralization; type: physicochemical; conditions: […] w/v meloxicam formula, 2:1 meglumine-to-meloxicam, neutralized; pH crossed neutral

| Behaviour on neutralization | SMILES |
| --- | --- |
| fell out of solution | Cc1cnc(NC(=O)C2=C(O)c3ccccc3S(=O)(=O)N2C)s1 [Meloxicam] |

experiment: Solubilization by meglumine chelate system (hydrotrope) at basic pH; conditions: basic pH with meglumine

| SMILES | Dissolution after treatment to create a chelate system |
| --- | --- |
| CS(=O)(=O)c1ccc([C@@H](O)[C@@H](CF)NC(=O)C(Cl)Cl)cc1 [Florfenicol] | Contains an amide and an aryl sulfone, but only one aromatic group and did not dissolve when tested. |
| O=[N+]([O-])/N=C1\NCCN1Cc1ccc(Cl)nc1 [Imidacloprid] | Contains a secondary amine and other nitrogen containing groups but only one aromatic group and did not dissolve when tested. |
| Cc1cc(-n2c(=O)[nH]c(=O)n(C)c2=O)ccc1Oc1ccc(S(=O)(=O)C(F)(F)F)cc1 [Ponazuril] | Contains two aromatic groups and a sulfoxide and an amide, but the amide is not on the chain between the two aromatic rings and did not dissolve when tested. |
| CO/N=C1\C[C@]2(C[C@@H]3C[C@@H](C/C=C(\C)C[C@@H](C)/C=C/C=C4\CO[C@@H]5[C@H](O)C(C)=C[C@@H](C(=O)O3)[C@]45O)O2)O[C@H](/C(C)=C/C(C)C)[C@H]1C [Moxidectin] | No amines, amides, amino sulfones, or aromatic groups and did not dissolve when tested. |
| O=C(NC(=O)c1c(F)cccc1F)Nc1cc(Cl)c(OC(F)(F)C(F)C(F)(F)F)cc1Cl (stereo not drawn) [Lufenuron] | Contains two aromatic groups separated by two amide groups between the two aromatic groups and did not dissolve when tested. |
| COc1ccc2[nH]c([S+]([O-])Cc3ncc(C)c(OC)c3C)nc2c1 (stereo not drawn) [Omeprazole] | Contains an aromatic benzene ring, a sulfoxide and an aromatic benzimidazole group, but it does not contain a secondary amine, amide or amino sulfone group and did not dissolve when tested. |
| O=C(CNC(=O)c1ccc(C2=NOC(c3cc(Cl)cc(C(F)(F)F)c3)(C(F)(F)F)C2)c2ccccc12)NCC(F)(F)F (stereo not drawn) [Afoxolaner] | Contains two amides and two aromatic groups, but the amides are not on a chain between the two aromatic groups. The one nitrogen atom that is between the two aromatic groups is not a secondary amine, amide or amino sulfone and did not dissolve when tested. |
| COc1ccc(-c2cc(C(F)F)nn2-c2ccc(S(N)(=O)=O)cc2)cc1F [Deracoxib] | Contains two aromatic groups and an aryl amino sulfone but the two nitrogen atoms between the aromatic groups are not secondary amines, amides or amino sulfones and did not dissolve when tested. |
| CCN1CCN(c2cc3c(cc2F)c(=O)c(C(=O)O)cn3C2CC2)CC1 [Enrofloxacin] | Contains only tertiary amines and only one aromatic group and did not dissolve when tested. |
| CC[C@H](C)[C@H]1O[C@]2(C=C[C@@H]1C)C[C@@H]1C[C@@H](C/C=C(\C)[C@@H](O[C@H]3C[C@H](OC)[C@@H](O[C@H]4C[C@H](OC)[C@H](NC(C)=O)[C@H](C)O4)C(C)O3)[C@@H](C)/C=C/C=C3\CO[C@@H]4[C@H](O)C(C)=C[C@@H](C(=O)O1)[C@]34O)O2 (stereo partly drawn) [Eprinomectin] | Contains an amide, but no amines, amino sulfones or aromatic groups and did not dissolve when tested. |
| CC1(C)OC(=O)C(OCC2CC2)=C1c1ccc(S(C)(=O)=O)cc1 [Firocoxib] | Does not contain any nitrogen and only one aromatic group with an aryl sulfone and did not dissolve when tested. |
| COC(=O)Nc1nc2ccc(Sc3ccccc3)cc2[nH]1 [Fenbendazole] | Contains two aromatic groups and an amide, but the amide is not on the chain between the two aromatic groups and did not dissolve when tested. |

same assay, conditions: basic pH, meglumine at least 2:1 molar ratio (meglumine to molecule)

| Examples of Solubilities Demonstrated in Experiments (in w/v) | SMILES |
| --- | --- |
| At least 1.5% w/v | CCc1nc2c(C)nc(C)cc2n1-c1ccc(CCNC(=O)NS(=O)(=O)c2ccc(C)cc2)cc1 [Grapiprant] |

experiment: not given; conditions: source named in cell (Merck Index, Pubchem, published literature); cited from earlier work

| SMILES | Reported Solubility in Water (in w/v) |
| --- | --- |
| Nc1ccc(S(=O)(=O)Nc2ncccn2)cc1 [Sulfadiazine] | 0.0077% (Pubchem) % w/v |
| COc1cc(NS(=O)(=O)c2ccc(N)cc2)nc(OC)n1 [Sulfadimethoxine] | 0.0343% (Pubchem) % w/v |
| CC(C(=O)O)c1ccc2c(c1)[nH]c1ccc(Cl)cc12 (stereo not drawn) [Carprofen] | 0.00411% (Pubchem) % w/v |
| CCc1nc2c(C)nc(C)cc2n1-c1ccc(CCNC(=O)NS(=O)(=O)c2ccc(C)cc2)cc1 [Grapiprant] | Insoluble (Pubchem) |
| CCc1ccc(Nc2c(F)c(F)cc(F)c2F)c(CC(=O)O)c1 [Robenacoxib] | 0.017% (published literature) % w/v |
| CN1C(C(=O)Nc2ccccn2)=C(O)c2ccccc2S1(=O)=O [Piroxicam] | 0.00497% (Pubchem) % w/v |
